Measurements: paper PMC9409168, “Kinetic Characterization of Cerium and Gallium Ions as Inhibitors of Cysteine Cathepsins L, K, and S” (International Journal of Molecular Sciences, 2022)
Where two headings read alike, the source gives them in different places.

Legend:
cathepsin L [1] = target: T1, cathepsin L (Homo sapiens, UniProt P07711); assay: Kinetics of cathepsin L inhibition by metal ions, fluorogenic substrate Z-Leu-Arg-AMC; type: biochemical; details: for Mechanism: specific velocity plot
T1 construct: made in house; host or cells: E. coli

cathepsin K [2] = target: T2, cathepsin K (Homo sapiens, UniProt P43235); assay: Kinetics of cathepsin K inhibition by metal ions, fluorogenic substrate Z-Phe-Arg-AMC; type: biochemical; details: for Mechanism: specific velocity plot / titration
T2 construct: made in house; host or cells: E. coli
T2 sequence (P43235 115-329): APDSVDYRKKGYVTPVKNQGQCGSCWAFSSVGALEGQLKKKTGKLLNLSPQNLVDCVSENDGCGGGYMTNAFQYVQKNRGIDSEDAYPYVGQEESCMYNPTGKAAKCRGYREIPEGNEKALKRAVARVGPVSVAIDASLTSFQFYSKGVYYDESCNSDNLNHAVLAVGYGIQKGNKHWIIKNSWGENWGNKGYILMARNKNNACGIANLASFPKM

cathepsin S [3] = target: T3, cathepsin S (Homo sapiens, UniProt P25774); assay: Kinetics of cathepsin S inhibition by metal ions, fluorogenic substrate Z-Val-Val-Arg-AMC; type: biochemical; details: for Mechanism: specific velocity plot / titration
T3 construct: made in house; host or cells: E. coli

cathepsin K [4] = target: T2, cathepsin K; assay: Degradation of insoluble bovine neck ligament elastin by cathepsin K; type: biochemical; details: metal ions 0.5 mM
Procedure: (§1) Degradation of insoluble elastin was performed and analyzed according to the protocol in ref. [51]. Briefly, reactions were performed using 200 µL samples, each containing 1 mg of insoluble bovine neck ligament elastin. The enzymes were added to a final concentration of 0.2 µM and the metal ions to a final concentration of 0.5 mM. Samples were incubated at 37 °C for 120 min on an Eppendorf Thermomixer with shaking at 1200 rpm, and the reactions were then stopped by the addition of trichloroacetic acid to a final concentration of 5% (w/V). Samples were cleared by centrifugation and 100 µL of the supernatant was mixed with 1400 µL of 0.2 M sodium borate buffer and 500 µL of a 0.15 mg/mL solution of fluorescamine in acetone. The fluorescence of the samples was measured at an excitation wavelength of λex = 390 nm and emission wavelength of λem = 480 nm. Blank samples without added enzyme were run in parallel and their fluorescence values were subtracted from the samples. Experiments were performed in three replicates of each sample and each experiment was repeated multiple times to assure reproducibility of the results.

cathepsin S [5] = target: T3, cathepsin S; assay: Degradation of insoluble bovine neck ligament elastin by cathepsin S; type: biochemical; details: metal ions 0.5 mM
Procedure: as §1

cathepsins L, K, and S = assay: Kinetics of inhibition, summary over all tested peptidases; type: biochemical, human; details: range over all peptidases tested (cathepsins L, K, S); read-out: equilibrium dissociation constants (inhibition constants)
cathepsin L [6] = target: T1, cathepsin L; assay: Degradation of insoluble bovine neck ligament elastin by cathepsin L; type: biochemical; details: metal ions 0.5 mM
Procedure: as §1

[7] = tested on: cell growth and metabolism; set-up: method as in PMID 7929991; details: cited from earlier work
[8] = Z-Leu-Arg-AMC, 25 °C, 0.1 M sodium acetate buffer pH 5.5, read-out: KX
[9] = Z-Phe-Arg-AMC, 25 °C, 0.1 M sodium acetate buffer pH 5.5, read-out: KX
[10] = Z-Val-Val-Arg-AMC, 25 °C, 0.1 M sodium acetate buffer pH 5.5, read-out: KX
[11] = effect on catalytic rate, general modifier mechanism
[12] = effect on substrate affinity, general modifier mechanism

T3 sequence (P25774 115-331): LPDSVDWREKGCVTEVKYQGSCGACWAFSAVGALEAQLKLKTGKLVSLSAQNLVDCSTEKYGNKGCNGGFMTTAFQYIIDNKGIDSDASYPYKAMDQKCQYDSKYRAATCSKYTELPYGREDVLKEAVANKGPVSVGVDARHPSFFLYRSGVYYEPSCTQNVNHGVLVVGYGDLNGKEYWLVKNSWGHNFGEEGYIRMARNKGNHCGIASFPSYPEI
T1 sequence (P07711 114-333): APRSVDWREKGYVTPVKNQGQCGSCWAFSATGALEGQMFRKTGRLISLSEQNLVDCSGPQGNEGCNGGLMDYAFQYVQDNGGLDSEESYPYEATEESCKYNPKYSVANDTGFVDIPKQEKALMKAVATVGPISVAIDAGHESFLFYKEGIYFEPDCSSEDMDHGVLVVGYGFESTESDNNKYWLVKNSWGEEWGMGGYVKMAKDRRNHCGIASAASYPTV

Structure (SMILES)	Ki (cathepsin L [1]; [8]) [µM]	Mechanism (cathepsin L [1])	Ki (cathepsin K [2]; [9]) [µM]	Mechanism (cathepsin K [2])	Ki (cathepsin S [3]; [10]) [µM]	Mechanism (cathepsin S [3])	inhibition of elastin degradation, comparison in words (cathepsin K [4])	inhibition of elastin degradation, comparison in words (cathepsin S [5])	Ki (cathepsins L, K, and S) [µM]	Ki (cathepsin L [1]; read-out: KX) [µM]	β (cathepsin K [2]; [11])	α (cathepsin K [2]; [12])	Ki (cathepsin K [2]; read-out: KX) [µM]	residual enzyme activity at saturation (cathepsin K [2]; synthetic substrate)	β (cathepsin S [3]; [11])	α (cathepsin S [3]; [12])	Ki (cathepsin S [3]; read-out: KX) [µM]	residual enzyme activity at saturation (cathepsin S [3]; synthetic substrate)	inhibition of elastin degradation, comparison in words (cathepsin L [6])	toxic effects on cell growth and metabolism [7]
[Zn+2] [Zn^2+]	7.5 ± 0.9	Linear specific	7.3 ± 0.3	Linear specific	2.9 ± 0.5	Linear specific	strongest inhibitor	strongest inhibitor	~1	–	–	–	–	–	–	–	–	–	–	–
O=[N+]([O-])[O-].O=[N+]([O-])[O-].O=[N+]([O-])[O-].[Ga+3] [Ga^3+, Ga(NO3)3]	0.6 ± 0.04	Linear specific	4.1 ± 0.8	Hyperbolic mixed	3.7 ± 0.6	Hyperbolic mixed	–	–	–	0.6	2.4 ± 1.4	11.5 ± 1.0	~4	about 20%	3.3 ± 0.5	11.3 ± 1.0	~4	about 20%	most potent inhibitor	no significant toxic effects
[Pb+2] [Pb^2+, reference compound]	26 ± 12	Linear specific	135 ± 13	Linear specific	50 ± 5	Linear specific	–	–	–	–	–	–	–	–	–	–	–	–	–	–
